This is an account of results in US12653794B2, “Dextromethorphan transdermal delivery device” (SHINKEI THERAPEUTICS, INC., priority 2017, dated 2026).

For series [1] the following is noted: human, in vivo; cited from earlier work.
Series [2] in a line: Transdermal delivery rate without enhancer. The text has this:
The unpredictability of transdermal administration is notorious. […] Structurally and by calculated Log P, these compounds are very similar, such that this difference could not be anticipated. See, U.S. Provisional Appl. No. 62/568,028, filed Oct. 4, 2017, the content of which is incorporated by reference in its entirety.

The nature of series [3]: Transdermal flux test, Franz Diffusion Cell method. It counts as in vitro ADME, human. As to the method:
Transdermal flux of Dextromethorphan from the patch was tested using human cadaver epidermis by Franz Diffusion Cell method.
Patch formulations A, B, and C prepared in Example 1 were used for a skin permeation study using the following protocol: • Franz cell assembly—Logan Instruments (6-cell unit) • Each cell has 12 mL volume, 1.5 cm diameter orifice • Receptor medium is a phosphate buffer solution (PBS) pH 7.4 • Cell temperature is maintained at 37° C. • Sampling method: take 1.5 mL for HPLC assay, empty cell, replace with fresh medium • Sampling time points: 4, 8, 12, 24 and 48 hours • Cadaver skin is used and is obtained from New York Fire Fighters Skin Bank. Skin No. MM07116, While, person, skin site: left posterior leg. • Assay method for media: HPLC based.
Formulations D0-D2 were also tested for their in vitro flux characteristics following the same protocol as described in Example 2.

As to `COc1ccc2c(c1)[C@]13CCCC[C@@H]1[C@H](C2)N(C)CC3` [dextromethorphan], in series [1], the “adverse reactions reported with the individual component” value was “drowsiness, dizziness, nervousness or restlessness, nausea, vomiting, and stomach pain”.

As for `C[C@]12CC[C@H]3[C@@H](CCC4=CC(=O)CC[C@@]43C)[C@@H]1CC[C@@H]2O` [testosterone], in series [2], the “transdermal delivery rate relative to beta estradiol” value is reported as “three orders of magnitude higher”. As to `CCCCCCCCCCCCCC(=O)OC(C)C` [IPM, isopropyl myristate], in series [3], the “effect on flux of dextromethorphan” value is “significant enhancement of flux was observed” and the “effect on skin permeation of DXM” value is “significantly enhance the skin permeation of DXM”.
